Columns and labels:
[1] = target: T1, Human melanin-concentrating hormone (MCH1) (Homo sapiens, UniProt Q99705); assay: Radioligand binding, human melanin-concentrating hormone MCH1 membranes, FlashPlate, [125I]-S36057; details: compound at 10 μM; for A6 radioligand binding inhibition: human MCH1 membranes
T1 construct: purchased Perkin Elmer Biosignal
In short: (§1)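 Cloned human receptor membranes were coated onto FlashPlate wells and incubated with radioligand and compound (added from a 0.5 mM DMSO daughter plate) for 1 hour at room temperature in the dark. Scintillation counting gave percent inhibition, with DMSO defining total and reference ligand defining non-specific binding.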

Human Melanocortin (MC3) = target: T2, Human Melanocortin (MC3) (Homo sapiens, UniProt P41968); assay: Radioligand binding, human melanocortin MC3 membranes, FlashPlate, [125I]-NDP-αMSH; details: compound at 10 μM; for A3 radioligand binding inhibition: human melanocortin MC3 membranes
T2 construct: purchased Perkin Elmer Biosignal
T2 sequence (P41968 whole entry): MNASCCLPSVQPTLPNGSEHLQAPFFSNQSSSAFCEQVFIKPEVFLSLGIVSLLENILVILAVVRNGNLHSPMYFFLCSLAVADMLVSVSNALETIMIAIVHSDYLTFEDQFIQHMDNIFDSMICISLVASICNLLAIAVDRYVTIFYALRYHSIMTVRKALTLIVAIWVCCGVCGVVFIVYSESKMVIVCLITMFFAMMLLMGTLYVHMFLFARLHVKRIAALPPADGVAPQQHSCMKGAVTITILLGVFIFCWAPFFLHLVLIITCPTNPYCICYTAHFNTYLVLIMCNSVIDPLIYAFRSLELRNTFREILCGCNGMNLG
In short: as §1

Mouse urotensin (mUR2) = target: T3, Mouse urotensin (mUR2) (Mus musculus, UniProt Q8VIH9); assay: Radioligand binding, mouse urotensin mUR2 membranes, FlashPlate, [125I]-Urotensin II; details: compound at 10 μM; for A11 radioligand binding inhibition: mouse urotensin mUR2 membranes
T3 construct: purchased Perkin Elmer Biosignal
T3 sequence (Q8VIH9 1-385): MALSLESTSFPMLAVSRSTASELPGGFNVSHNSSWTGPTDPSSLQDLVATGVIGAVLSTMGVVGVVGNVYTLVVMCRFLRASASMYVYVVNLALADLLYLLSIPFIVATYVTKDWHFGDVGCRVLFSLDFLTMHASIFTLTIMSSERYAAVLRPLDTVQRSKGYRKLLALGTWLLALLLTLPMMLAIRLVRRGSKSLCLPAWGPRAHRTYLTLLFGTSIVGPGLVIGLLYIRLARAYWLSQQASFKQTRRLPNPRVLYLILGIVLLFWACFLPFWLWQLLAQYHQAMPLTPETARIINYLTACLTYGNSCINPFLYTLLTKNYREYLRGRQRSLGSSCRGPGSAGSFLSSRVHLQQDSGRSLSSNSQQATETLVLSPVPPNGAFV
In short: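 Cloned mouse urotensin (mUR2) receptor membranes from Perkin Elmer Biosignal were immobilized in FlashPlate microplates using a proprietary coating. Each well got 19.5 μl buffer, then 0.5 μl of DMSO, reference ligand, or compound. Adding 5 μl of [125I]-Urotensin II, diluted to 5× final concentration in binding buffer, started binding. Plates were sealed with TopSeal-A and incubated 1 hour at room temperature in the dark. Wells were counted for 30 seconds each on a TopCount after a 60-second delay, and percentage inhibition was calculated.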

Human melanocortin (MC5) = target: T4, Human melanocortin (MC5) (Homo sapiens, UniProt P33032); assay: Radioligand binding, human melanocortin MC5 membranes, FlashPlate, [125I]-NDP-αMSH; details: compound at 10 μM; for A5 radioligand binding inhibition: human melanocortin MC5 membranes
T4 construct: purchased Perkin Elmer Biosignal
T4 sequence (P33032 whole entry): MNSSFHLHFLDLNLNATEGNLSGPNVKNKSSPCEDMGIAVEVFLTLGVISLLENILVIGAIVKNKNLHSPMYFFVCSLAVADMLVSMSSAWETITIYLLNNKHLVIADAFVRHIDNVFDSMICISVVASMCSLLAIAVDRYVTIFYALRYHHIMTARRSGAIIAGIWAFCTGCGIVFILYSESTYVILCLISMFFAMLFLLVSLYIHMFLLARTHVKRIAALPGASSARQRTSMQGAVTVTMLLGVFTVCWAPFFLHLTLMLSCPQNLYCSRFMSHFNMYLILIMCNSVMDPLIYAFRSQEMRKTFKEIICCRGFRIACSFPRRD
In short: as §1

[2] = target: T5, Human neuropeptide Y (NPY-Y1) (Homo sapiens, UniProt P25929); assay: Radioligand binding, human neuropeptide Y NPY-Y1 membranes, FlashPlate, [125I]-PYY; details: compound at 10 μM
T5 construct: purchased Perkin Elmer Biosignal
T5 sequence (P25929 1-384): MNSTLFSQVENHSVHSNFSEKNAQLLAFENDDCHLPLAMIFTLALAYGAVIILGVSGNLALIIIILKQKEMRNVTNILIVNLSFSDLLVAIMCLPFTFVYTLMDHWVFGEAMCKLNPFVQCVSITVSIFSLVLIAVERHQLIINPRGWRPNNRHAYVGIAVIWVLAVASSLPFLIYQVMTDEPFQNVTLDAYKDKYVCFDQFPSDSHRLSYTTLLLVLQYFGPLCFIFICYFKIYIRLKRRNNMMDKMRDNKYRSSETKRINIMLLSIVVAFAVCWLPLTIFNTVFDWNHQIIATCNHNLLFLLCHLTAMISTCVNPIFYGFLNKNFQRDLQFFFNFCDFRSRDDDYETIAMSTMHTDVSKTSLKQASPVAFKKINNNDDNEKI
In short: as §1

Human Melanocortin (MC4) = target: T6, Human Melanocortin (MC4) (Homo sapiens, UniProt P32245); assay: Radioligand binding, human melanocortin MC4 membranes, FlashPlate, [125I]-NDP-αMSH; details: compound at 10 μM; for A4 radioligand binding inhibition: human melanocortin MC4 membranes
T6 construct: purchased Perkin Elmer Biosignal
T6 sequence (P32245 whole entry): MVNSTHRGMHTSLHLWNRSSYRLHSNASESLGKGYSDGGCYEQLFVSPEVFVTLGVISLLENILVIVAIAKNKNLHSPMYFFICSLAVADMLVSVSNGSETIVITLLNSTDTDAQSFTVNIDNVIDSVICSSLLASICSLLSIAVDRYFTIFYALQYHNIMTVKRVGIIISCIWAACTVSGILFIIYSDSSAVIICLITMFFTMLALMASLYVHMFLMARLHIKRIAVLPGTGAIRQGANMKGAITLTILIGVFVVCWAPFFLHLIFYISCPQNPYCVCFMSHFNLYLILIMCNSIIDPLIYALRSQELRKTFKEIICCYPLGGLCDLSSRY
In short: as §1

Human opioid (ORL1) = target: T7, Human opioid (ORL1) (Homo sapiens, UniProt P41146); assay: Radioligand binding, human opioid ORL1 membranes, FlashPlate, [125I]-Nociceptin; details: compound at 10 μM
T7 construct: purchased Perkin Elmer Biosignal
T7 sequence (P41146 whole entry): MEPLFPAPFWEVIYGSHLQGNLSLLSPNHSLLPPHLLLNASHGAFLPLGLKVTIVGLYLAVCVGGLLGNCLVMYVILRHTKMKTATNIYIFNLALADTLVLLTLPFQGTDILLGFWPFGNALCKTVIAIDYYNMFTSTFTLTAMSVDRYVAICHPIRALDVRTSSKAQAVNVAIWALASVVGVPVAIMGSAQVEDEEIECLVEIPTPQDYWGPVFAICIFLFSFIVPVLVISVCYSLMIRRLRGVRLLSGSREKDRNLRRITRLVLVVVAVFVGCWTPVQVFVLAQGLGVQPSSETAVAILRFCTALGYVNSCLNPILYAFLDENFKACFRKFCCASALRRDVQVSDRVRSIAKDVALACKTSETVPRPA
In short: as §1

Human μ-opioid (MOP) = target: T8, Human μ-opioid (MOP) (Homo sapiens, UniProt P35372); assay: Radioligand binding, human μ-opioid (MOP) membranes, FlashPlate, [3H]-Naloxone; details: compound at 10 μM; for A7 radioligand binding inhibition: human μ-opioid (MOP) membranes
T8 construct: purchased Perkin Elmer Biosignal
T8 sequence (P35372 whole entry): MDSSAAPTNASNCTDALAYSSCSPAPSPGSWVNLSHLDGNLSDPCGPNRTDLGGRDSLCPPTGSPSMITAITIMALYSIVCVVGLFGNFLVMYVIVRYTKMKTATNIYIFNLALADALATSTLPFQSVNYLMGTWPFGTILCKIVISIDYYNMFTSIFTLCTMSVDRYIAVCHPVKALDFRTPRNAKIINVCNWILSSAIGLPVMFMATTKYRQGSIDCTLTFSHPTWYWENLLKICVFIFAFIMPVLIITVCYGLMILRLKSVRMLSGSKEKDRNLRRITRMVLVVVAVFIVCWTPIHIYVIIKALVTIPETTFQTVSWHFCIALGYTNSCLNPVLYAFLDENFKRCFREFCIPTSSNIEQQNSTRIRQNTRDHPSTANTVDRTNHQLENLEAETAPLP
In short: as §1

Human δ-opioid (DOP) = target: T9, Human δ-opioid (DOP) (Homo sapiens, UniProt P41143); assay: Radioligand binding, human δ-opioid (DOP) membranes, FlashPlate, [3H]-Bremazocine; details: compound at 10 μM; for A1 radioligand binding inhibition: human δ-opioid (DOP) membranes
T9 construct: purchased Perkin Elmer Biosignal
T9 sequence (P41143 whole entry): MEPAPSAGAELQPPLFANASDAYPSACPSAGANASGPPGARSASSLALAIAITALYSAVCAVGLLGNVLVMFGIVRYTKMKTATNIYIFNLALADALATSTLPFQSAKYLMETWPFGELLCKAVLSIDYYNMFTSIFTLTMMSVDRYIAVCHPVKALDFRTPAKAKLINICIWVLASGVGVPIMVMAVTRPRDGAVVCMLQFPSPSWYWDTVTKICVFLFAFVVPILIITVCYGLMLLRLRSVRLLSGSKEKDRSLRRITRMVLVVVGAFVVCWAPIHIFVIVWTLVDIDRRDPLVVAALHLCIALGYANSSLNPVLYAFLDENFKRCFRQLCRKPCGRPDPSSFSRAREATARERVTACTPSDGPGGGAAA
In short: as §1

Human neurokinin (NK1) = target: T10, Human neurokinin (NK1) (Homo sapiens, UniProt P25103); assay: Radioligand binding, human neurokinin NK1 membranes, filtration, [125I]-Substance P; details: compound at 10 μM; for A8 radioligand binding inhibition: human neurokinin NK1 membranes
T10 construct: purchased Perkin Elmer Biosignal
T10 sequence (P25103 whole entry): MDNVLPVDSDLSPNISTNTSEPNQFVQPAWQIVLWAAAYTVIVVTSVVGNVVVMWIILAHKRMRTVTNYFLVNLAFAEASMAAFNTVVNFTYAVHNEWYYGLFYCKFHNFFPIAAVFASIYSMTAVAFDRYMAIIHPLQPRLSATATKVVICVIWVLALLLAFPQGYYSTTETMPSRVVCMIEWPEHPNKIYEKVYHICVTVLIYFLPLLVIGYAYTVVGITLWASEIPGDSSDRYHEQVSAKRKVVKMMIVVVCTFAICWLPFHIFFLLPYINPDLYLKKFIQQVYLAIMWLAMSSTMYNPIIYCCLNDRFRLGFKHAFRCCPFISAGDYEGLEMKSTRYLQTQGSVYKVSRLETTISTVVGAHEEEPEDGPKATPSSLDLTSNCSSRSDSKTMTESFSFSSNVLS
In short: (§2)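 Percent inhibition of radioligand binding measured on recombinant human membranes: NK1 with [125I]-Substance P, KOP with [3H]-Diprenorphine. Incubation 1 h at room temperature, then harvest onto 0.3% PEI-soaked filters, cold Tris-HCl pH 7.4 washes and scintillation counting; non-specific binding from reference ligand wells.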

Human κ-Opioid (KOP) = target: T11, Human κ-Opioid (KOP) (Homo sapiens, UniProt P41145); assay: Radioligand binding, human κ-opioid (KOP) membranes, filtration, [3H]-Diprenorphine; details: compound at 10 μM; for A2 radioligand binding inhibition: human κ-opioid (KOP) membranes
T11 construct: purchased Perkin Elmer Biosignal
T11 sequence (P41145 whole entry): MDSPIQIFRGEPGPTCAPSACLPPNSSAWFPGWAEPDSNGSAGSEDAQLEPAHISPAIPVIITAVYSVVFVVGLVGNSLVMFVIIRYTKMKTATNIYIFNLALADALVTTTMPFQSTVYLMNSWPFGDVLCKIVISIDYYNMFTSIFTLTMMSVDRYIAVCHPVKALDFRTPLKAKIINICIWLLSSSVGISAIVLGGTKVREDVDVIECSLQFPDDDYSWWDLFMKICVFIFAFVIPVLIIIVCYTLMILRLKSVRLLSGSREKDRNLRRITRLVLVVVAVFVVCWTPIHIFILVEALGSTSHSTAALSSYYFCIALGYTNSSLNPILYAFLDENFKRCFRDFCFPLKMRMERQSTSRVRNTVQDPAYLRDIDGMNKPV
In short: as §2

T1 sequence (Q99705 whole entry): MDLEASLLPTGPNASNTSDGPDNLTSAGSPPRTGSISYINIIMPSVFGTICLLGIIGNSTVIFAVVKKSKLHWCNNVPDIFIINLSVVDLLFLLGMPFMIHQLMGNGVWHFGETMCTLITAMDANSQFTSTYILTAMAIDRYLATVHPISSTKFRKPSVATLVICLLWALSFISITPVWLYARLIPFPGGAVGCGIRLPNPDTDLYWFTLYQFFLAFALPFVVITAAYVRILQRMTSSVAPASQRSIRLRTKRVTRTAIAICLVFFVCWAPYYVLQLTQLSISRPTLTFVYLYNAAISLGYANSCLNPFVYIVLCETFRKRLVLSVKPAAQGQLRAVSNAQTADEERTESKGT

SMILES	A6 radioligand binding inhibition [1]	A3 radioligand binding inhibition (Human Melanocortin (MC3))	A11 radioligand binding inhibition (Mouse urotensin (mUR2))	A5 radioligand binding inhibition (Human melanocortin (MC5))	A9 radioligand binding inhibition ([2]; human NPY-Y1 membranes)	A4 radioligand binding inhibition (Human Melanocortin (MC4))	A10 radioligand binding inhibition (Human opioid (ORL1); human ORL1 membranes)	A7 radioligand binding inhibition (Human μ-opioid (MOP))	A1 radioligand binding inhibition (Human δ-opioid (DOP))	A8 radioligand binding inhibition (Human neurokinin (NK1))	A2 radioligand binding inhibition (Human κ-Opioid (KOP))	other results
NCCCC(=O)NC1C(OCc2ccccc2)OC(COCc2ccc3ccccc3c2)C(O)C1OCc1ccc2ccccc2c1 (stereo not shown) [compound 375]												A6: inhibition of radioligand binding, human melanin-concentrating hormone (MCH1) ([1]; [125I]-S36057): − (“−” indicates less than 50% inhibition at 10 μM); A3: inhibition of radioligand binding, human melanocortin (MC3) (Human Melanocortin (MC3); [125I]-NDP-αMSH): − (“−” indicates less than 50% inhibition at 10 μM); A11: inhibition of radioligand binding, mouse urotensin (mUR2) (Mouse urotensin (mUR2); [125I]-Urotensin II): − (“−” indicates less than 50% inhibition at 10 μM); A5: inhibition of radioligand binding, human melanocortin (MC5) (Human melanocortin (MC5); [125I]-NDP-αMSH): + (“+” indicates greater than 50% inhibition at 10 μM); A9: inhibition of radioligand binding, human neuropeptide Y (NPY-Y1) ([2]; [125I]-PYY): − (“−” indicates less than 50% inhibition at 10 μM); A4: inhibition of radioligand binding, human melanocortin (MC4) (Human Melanocortin (MC4); [125I]-NDP-αMSH): + (“+” indicates greater than 50% inhibition at 10 μM); A10: inhibition of radioligand binding, human opioid (ORL1) (Human opioid (ORL1); [125I]-Nociceptin): − (“−” indicates less than 50% inhibition at 10 μM); A7: inhibition of radioligand binding, human μ-opioid (MOP) (Human μ-opioid (MOP); [3H]-Naloxone): − (“−” indicates less than 50% inhibition at 10 μM); A1: inhibition of radioligand binding, human δ-opioid (DOP) (Human δ-opioid (DOP); [3H]-Bremazocine): − (“−” indicates less than 50% inhibition at 10 μM); A8: inhibition of radioligand binding, human neurokinin (NK1) (Human neurokinin (NK1); [125I]-Substance P): + (“+” indicates greater than 50% inhibition at 10 μM); A2: inhibition of radioligand binding, human κ-opioid (KOP) (Human κ-Opioid (KOP); [3H]-Diprenorphine): − (“−” indicates less than 50% inhibition at 10 μM)
COC[C@H]1OC(OCc2ccc(Cl)cc2)[C@H](NC(=O)CCCNC(=N)N)[C@@H](OCc2ccc3ccccc3c2)[C@@H]1O (stereo partly shown) [compound 33]	+ (“+” indicates greater than 50% inhibition at 10 μM)	− (“−” indicates less than 50% inhibition at 10 μM)	− (“−” indicates less than 50% inhibition at 10 μM)	− (“−” indicates less than 50% inhibition at 10 μM)	− (“−” indicates less than 50% inhibition at 10 μM)	− (“−” indicates less than 50% inhibition at 10 μM)	− (“−” indicates less than 50% inhibition at 10 μM)	− (“−” indicates less than 50% inhibition at 10 μM)	− (“−” indicates less than 50% inhibition at 10 μM)	+ (“+” indicates greater than 50% inhibition at 10 μM)	− (“−” indicates less than 50% inhibition at 10 μM)	
NCCC(=O)N[C@H]1C(OCc2ccc3ccccc3c2)O[C@H](COCc2ccc3ccccc3c2)[C@@H](O)[C@@H]1OCc1ccccc1 (stereo partly shown) [compound 449]												A6: inhibition of radioligand binding ([1]; [125I]-S36057, human MCH1 membranes, 10 µM): + (“+” indicates greater than 50% inhibition at 10 μM); A3: inhibition of radioligand binding (Human Melanocortin (MC3); [125I]-NDP-αMSH, human MC3 membranes, 10 µM): + (“+” indicates greater than 50% inhibition at 10 μM); A11: inhibition of radioligand binding (Mouse urotensin (mUR2); [125I]-Urotensin II, mouse mUR2 membranes): − (“−” indicates less than 50% inhibition at 10 μM); A5: inhibition of radioligand binding (Human melanocortin (MC5); [125I]-NDP-αMSH, human MC5 membranes): + (“+” indicates greater than 50% inhibition at 10 μM); A9: inhibition of radioligand binding ([2]; [125I]-PYY, human NPY-Y1 membranes): − (“−” indicates less than 50% inhibition at 10 μM); A4: inhibition of radioligand binding (Human Melanocortin (MC4); [125I]-NDP-αMSH, human MC4 membranes): + (“+” indicates greater than 50% inhibition at 10 μM); A10: inhibition of radioligand binding (Human opioid (ORL1); [125I]-Nociceptin, human ORL1 membranes, 10 µM): + (“+” indicates greater than 50% inhibition at 10 μM); A7: inhibition of radioligand binding (Human μ-opioid (MOP); [3H]-Naloxone, human MOP membranes): − (“−” indicates less than 50% inhibition at 10 μM); A1: inhibition of radioligand binding (Human δ-opioid (DOP); [3H]-Bremazocine, human DOP membranes): − (“−” indicates less than 50% inhibition at 10 μM); A8: inhibition of radioligand binding (Human neurokinin (NK1); [125I]-Substance P, human NK1 membranes): + (“+” indicates greater than 50% inhibition at 10 μM); A2: inhibition of radioligand binding (Human κ-Opioid (KOP); [3H]-Diprenorphine, human KOP membranes): − (“−” indicates less than 50% inhibition at 10 μM)
COC[C@H]1OC(OCc2ccccc2)[C@H](NC(=O)CCCNC(=N)N)[C@@H](OCc2ccc(-c3ccccc3)cc2)[C@@H]1O (stereo partly shown) [compound 25]	+ (“+” indicates greater than 50% inhibition at 10 μM)	− (“−” indicates less than 50% inhibition at 10 μM)	− (“−” indicates less than 50% inhibition at 10 μM)	+ (“+” indicates greater than 50% inhibition at 10 μM)	− (“−” indicates less than 50% inhibition at 10 μM)	+ (“+” indicates greater than 50% inhibition at 10 μM)	− (“−” indicates less than 50% inhibition at 10 μM)	− (“−” indicates less than 50% inhibition at 10 μM)	− (“−” indicates less than 50% inhibition at 10 μM)	+ (“+” indicates greater than 50% inhibition at 10 μM)	− (“−” indicates less than 50% inhibition at 10 μM)	
CO[C@H]1[C@H](O)[C@@H](COCc2ccc(-c3ccccc3)cc2)OC(OCc2ccc3ccccc3c2)[C@@H]1NC(=O)CCCNC(=N)N (stereo partly shown) [compound 69]	+ (“+” indicates greater than 50% inhibition at 10 μM)	+ (“+” indicates greater than 50% inhibition at 10 μM)	− (“−” indicates less than 50% inhibition at 10 μM)	+ (“+” indicates greater than 50% inhibition at 10 μM)	− (“−” indicates less than 50% inhibition at 10 μM)	+ (“+” indicates greater than 50% inhibition at 10 μM)	+ (“+” indicates greater than 50% inhibition at 10 μM)	+ (“+” indicates greater than 50% inhibition at 10 μM)	− (“−” indicates less than 50% inhibition at 10 μM)	+ (“+” indicates greater than 50% inhibition at 10 μM)	− (“−” indicates less than 50% inhibition at 10 μM)	
